Source: patent US10132795B2, “Method for evaluating or selecting agent for suppressing GIP level elevation” (Kao Corporation, priority 2014, dated 2018)

Columns and labels:
[1] = tested on: mouse model of type-II diabetes or arteriosclerosis; details: oral administration; Non Patent Literature 18; cited from earlier work
[2] = tested on: primary culture cells of the small intestine; experiment: FABP4/5 inhibition test: lipid micelle (PPM)-stimulated GIP secretion in primary culture cells of the small intestine; format: cell-based, C57BL/6J mice; details: inhibitor 10 or 25 μM, 30 min pre-incubation and 30 min PPM stimulation; compared to PPM group; FIG. 3
Excerpt: C57BL/6J mice, 13 to 17 weeks old, were euthanized by cervical dislocation under anesthesia. The upper part of the small intestine (up to 10 cm immediately below the pylorus) was taken out and immersed in ice-cooled L-15 media (Sigma-Aldrich Co. LLC.). The small intestine was then transferred to ice-cooled PBS. Fat, blood vessels, etc. adhering to the intestinal tract were carefully removed. The inside of the lumen was washed with ice-cooled PBS and the tissue was cut into small pieces (pieces having an area of 2 mm^2 or smaller) with a scalpel. The small pieces were washed three to four times with PBS, to which 10 mL of DMEM (Sigma-Aldrich Co. LLC.) having Collagenase XI (Sigma-Aldrich Co. LLC.; 0.4 mg/mL) dissolved therein was added, followed by vigorous shaking for 10 seconds and then incubation at 37° C. for five minutes. The supernatants were then removed and 10 mL of the Collagenase solution was added again, followed by vigorous shaking for 10 seconds and then incubation at 37° C. for five minutes. […]
The media thus collected were centrifuged at 8,000 rpm, 4° C. for five minutes to obtain supernatants (secretion samples). […] GIP was quantitated in these samples with a GIP ELISA kit (for rat/mouse) (Merck Millipore Corporation) to obtain GIP secretion rates.

[3] = tested on: blood GIP and triglyceride (TG) concentrations; experiment: Single-dose administration test in mice (lipid emulsion load after FABP4/5 inhibitor); format: in vivo, mice (C57BL/6J); details: 30 mg/kg body weight intragastric
Procedure: Mice (C57BL/6J, male, 9 weeks old, n=4 to 5, CLEA Japan, Inc.) were fasted for 18 hours and then given intragastric administration of the FABP4/5 inhibitor BMS309403 (30 mg/kg body weight) in a solvent (10% 1-methyl-2-pyrrolione, 5% cremophor, and 2% ethanol) or only the solvent (control) through feeding needles under anesthesia. After 30 minutes, intragastric administration of lipid emulsions (triolein; 2 mg/kg body weight) was given. Blood was collected from the orbital sinus before and 10, 30, and 60 minutes after the administration of lipid emulsions. The blood thus collected was centrifuged at 11,000 rpm, 4° C. for 10 minutes to prepare the plasma. The blood GIP and triglyceride (TG) concentrations were measured with a GIP ELISA kit (for rat/mouse) (Merck Millipore Corporation) and a triglyceride E-test Wako (Wako Pure Chemical Industries, Ltd.), respectively.

[4] = 30 min before lipid emulsion, compared to control group, FIG. 2B
[5] = 30 min before triolein lipid emulsion, blood at 10, 30, 60 min, compared to control (solvent) group, FIG. 2A

CCc1c(-c2ccccc2)c(-c2ccccc2)nn1-c1ccccc1-c1cccc(OCC(=O)O)c1 [BMS309403]
pathological condition in mouse model of type-II diabetes or arteriosclerosis [1]: Amelioration in the pathological condition | increase in the GIP secretion rate of PPM-stimulated cells [2]: dose-dependently suppressed | Cmax of the blood GIP concentration [3, 4]: statistically significantly reduced | iAUC (0-1 h) of the blood GIP concentration [3, 4]: statistically significantly reduced | increase in the blood GIP concentration (ΔGIP) after the administration of lipid emulsions [3, 5]: statistically significantly reduced | increase in the blood TG concentration (ΔTG) after the administration of lipid emulsions [3, 5]: statistically significantly reduced
